Results as given in PubChem BioAssay AID489040 (Sanford-Burnham Center for Chemical Genomics, 2010).
The source made the active and inactive calls.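 The calls were made as follows: active = mean half-maximal activating concentration from the dose-response fit at or below a set limit; inactive = the rest.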

Target: CHO-XBP1 luciferase reporter, IRE1-XBP1 UPR activation
Experiment: activators of IRE1-XBP1 UPR arm, dose response, counter-screen for apoptotic UPR arm activators, CHO-XBP1 cells, luminescence (AID 489040);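 also: reporter read after six hours of compound exposure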

## Oc1ccc(/C=N/Nc2cc(N3CCCC3)nc(N3CCCC3)n2)cc1O
  EC50: inactive

## Cc1ccc2[nH]cc(C(=O)CCl)c2c1
  EC50: > 80 µM (inactive)

## Cc1cccc(C)c1NC(=O)c1nc(S(=O)(=O)Cc2ccccc2)ncc1Cl
  EC50: > 80 µM (inactive)

## Cc1ccc(Sc2ccc(/C=C3/C(=O)NN(c4ccccc4)C3=O)o2)cc1
  EC50: > 80 µM (inactive)

## CCOc1ccc(N2C(=O)/C(=C\c3cccs3)C(=O)NC2=S)cc1
  EC50: > 80 µM (inactive)

## COC(=O)c1ccc(COc2ccccc2/C=C(\C#N)C(=O)Nc2c(C)cccc2C)cc1
  EC50: inactive

## Cc1ccccc1/C=C/C(=O)c1ccc([N+](=O)[O-])o1
  EC50: > 80 µM (inactive)

## CSc1nnc(NC(=O)c2nc(S(=O)(=O)Cc3ccc(C)cc3)ncc2Cl)s1
  EC50: > 80 µM (inactive)

## COc1ccc(C(C[N+](=O)[O-])n2nc(C)cc2C)cc1 (configuration not stated)
  EC50: > 80 µM (inactive)

## CC1(C)C=Cc2c(c3c(c4c(=O)c(-c5ccc(O)cc5)coc24)OC(C)(C)CC3)O1
  EC50: inactive

## Cc1nc([N+](=O)[O-])c(Br)n1CC(=O)c1ccc(Br)cc1
  EC50: > 80 µM (inactive)

## Cc1ccc(CS(=O)(=O)c2ncc(Cl)c(C(=O)Nc3ccc(OC(F)F)cc3)n2)cc1
  EC50: > 80 µM (inactive)

## N#Cc1ccc(N/N=C/c2cn(-c3ccccc3)nc2-c2ccccc2)c([N+](=O)[O-])c1
  EC50: > 80 µM (inactive)

## CC(C)[C@H](NC(=O)OC(C)(C)C)c1nnc(S(=O)(=O)Cc2c(F)cccc2Cl)o1
  EC50: > 80 µM (inactive)

## O=C(N/N=C(\c1ccccc1)c1cccnc1)c1cccc(F)c1
  EC50: > 80 µM (inactive)

## CCCOc1ccc(N2C(=O)CC(N(O)c3ccccc3)C2=O)cc1 (configuration not stated)
  EC50: > 80 µM (inactive)

## Cc1ccccc1CS(=O)(=O)c1ncc(Cl)c(C(=O)Nc2ccc(F)cc2)n1
  EC50: > 80 µM (inactive)

## COc1ccccc1C(=O)NC(=S)NNC(=O)c1sc2ccccc2c1Cl
  EC50: inactive

## O=C(/C=C/c1ccco1)NC(=S)Nc1ccc(O)c(-c2nc3ccccc3s2)c1
  EC50: 9.84 µM

## COc1ccc(/C=C2\CN(Cc3ccccc3)C/C(=C\c3ccc(OC)c(O)c3)C2=O)cc1O
  EC50: > 80 µM (inactive)

## CC(=O)c1cccc(NC(=O)CSc2ncc(C(=O)Nc3ccccc3)c(=O)n2C)c1
  EC50: > 80 µM (inactive)

## CC1=C(CC/C(C)=N/NC(N)=S)C(C)(C)CCC1
  EC50: inactive

## COc1cccc2sc(Nc3nnc(-c4cccs4)o3)nc12
  EC50: > 80 µM (inactive)

## Oc1ccc(-c2csc(-c3ccccc3)n2)cc1O
  EC50: > 80 µM (inactive)

## CN1CSC(=S)N(C)C1
  EC50: > 80 µM (inactive)

## Cc1ccc(-c2nn3c(C)nnc3s2)cc1NC(=O)c1ccc(-c2ccc(Cl)cc2Cl)o1
  EC50: 15.9 µM

## Oc1ccc(/C=N/N2CCCCC2)cc1O
  EC50: > 80 µM (inactive)

## COc1ccc(-c2cc(C(F)F)n3ncc(C(=O)n4ccnc4C)c3n2)cc1
  EC50: > 80 µM (inactive)

## S=C1SCN(Cc2ccccn2)CN1Cc1ccco1
  EC50: > 80 µM (inactive)

## CCc1cc2c(=O)c(-c3cnn(-c4ccccc4)c3)c(C)oc2cc1OCC(=O)Nc1cccc(C)c1
  EC50: inactive

## O=c1[nH]c(=S)n(C2CC2)c(O)c1C=Nc1cccc(C(F)(F)F)c1
  EC50: > 80 µM (inactive)

## O=C(NCCc1ccccc1)c1coc(=O)c(Br)c1
  EC50: > 80 µM (inactive)

## Oc1ccc(-c2csc(Nc3ccccn3)n2)cc1O
  EC50: > 80 µM (inactive)

## COc1ccc(C(=O)C(CN2CCOCC2)c2ccccc2)cc1 (configuration not stated)
  EC50: > 80 µM (inactive)

## COc1ccc(N=Nc2ccc(O)c3ncccc23)cc1
  EC50: inactive

## O=[N+]([O-])c1ccc(C=Nc2ccc(Cl)cc2Cl)s1
  EC50: > 80 µM (inactive)

## Cc1ccc(C(C)C)c(OCc2ccc(C(=O)N/N=C/c3ccc(O)c(O)c3)cc2)c1
  EC50: 4.41 µM

## Cc1cccc(-n2ncc(Cl)c(Cl)c2=O)c1
  EC50: > 80 µM (inactive)

## C/C(=N\NC(=O)c1cccc2ccccc12)c1ccccn1
  EC50: > 80 µM (inactive)

## COc1cc(CNc2ccc3[nH]c(=O)[nH]c3c2)cc(Br)c1OCc1ccccc1F
  EC50: > 80 µM (inactive)

## O=C(CSc1ccccn1)Nc1nonc1[N+](=O)[O-]
  EC50: > 80 µM (inactive)

## COC(=O)c1c(NC(=O)CC2Nc3ccccc3NC2=O)sc(C)c1C (configuration not stated)
  EC50: > 80 µM (inactive)

## O=C(CN(c1cccc(C(F)(F)F)c1)S(=O)(=O)c1ccc(Cl)c([N+](=O)[O-])c1)NCc1ccc(F)cc1
  EC50: > 80 µM (inactive)

## COc1ccc(C2=CC(=O)N(Nc3ccccc3)C2=O)cc1
  EC50: > 80 µM (inactive)

## O=C(NC1CCCC1)C(c1ccc(F)cc1)N(Cc1ccc(F)cc1)C(=O)CCl (configuration not stated)
  EC50: > 80 µM (inactive)

## O=CC1=C(c2ccccc2)Oc2ccccc2O1
  EC50: > 80 µM (inactive)

## O=C(Nc1cccc(-c2nc3cccnc3s2)c1)C1c2ccccc2Oc2ccccc21
  EC50: 5.58 µM

## O=[N+]([O-])/C=C\c1ccc(N2CCOCC2)cc1
  EC50: > 80 µM (inactive)

## Cc1cccc(CSc2cccc3cccnc23)c1
  EC50: > 80 µM (inactive)

## CCOC(=O)N1CCN(S(=O)(=O)c2ccc(C(=O)Nc3nc4c(s3)CC(C)CC4)cc2)CC1 (configuration not stated)
  EC50: > 80 µM (inactive)

## Oc1[nH]c2ccccc2c1N=NC(=S)N1CCOCC1
  EC50: inactive

## CCOc1cc(/C=C2/C(=N)N3C=CSC3=NC2=O)ccc1OCCCOc1ccccc1C
  EC50: 20 µM

## O=C(c1ccc(Br)cc1)C(CN1CCOCC1)c1ccccc1 (configuration not stated)
  EC50: > 80 µM (inactive)

## C/C(=N\Nc1ncnc2sc(C)c(C)c12)c1ccccn1
  EC50: inactive

## CCOC(=O)C1=C(Cc2ccc(Cl)cc2)C(=O)c2ccccc2C1=O
  EC50: > 80 µM (inactive)

## COc1ccc2c(c1)CCc1c(C(=O)Nc3cc(C)n(Cc4ccc(Cl)cc4)n3)noc1-2
  EC50: > 80 µM (inactive)

## Brc1ccc(-c2ccc(/C=N/Nc3nncc(-c4ccccc4)n3)o2)cc1
  EC50: inactive

## O=C(N/N=C/c1ccccn1)c1cc(-c2ccc(Cl)cc2)nc2ccccc12
  EC50: > 80 µM (inactive)

## O=c1nc(Nc2cccc(Cl)c2)oc2cc(Cl)oc(=O)c12
  EC50: > 80 µM (inactive)

## Oc1ccc(/C=N/Nc2ccnc3cc(Cl)ccc23)cc1O
  EC50: 8.71 µM

## Oc1ccc(-c2nc(-c3ccc(O)c(O)c3)cs2)cc1
  EC50: > 80 µM (inactive)

## Cn1nc([N+](=O)[O-])c(C(C#N)c2ccccn2)c(Cl)c1=O (configuration not stated)
  EC50: > 80 µM (inactive)

## Cc1ccc(N2C(=O)NC(=O)/C(=C/C=C/c3ccco3)C2=O)cc1
  EC50: > 80 µM (inactive)

## O=C1NC(=O)N(Cc2ccccc2)C(=O)/C1=C\C=C\c1ccco1
  EC50: > 80 µM (inactive)

## CCOC(=O)C1=C(CCl)NC(=O)NC1c1ccc2c(c1)OCO2 (configuration not stated)
  EC50: > 80 µM (inactive)

## COc1cccc(-n2c(SCC(=O)N3CCc4ccccc43)nnc2-c2c[nH]c3ccccc23)c1
  EC50: inactive

## Nc1c(C(=O)Nc2ccc(S(=O)(=O)N3CCCC3)cc2)sc2nc3ccc(OC(F)(F)F)cc3cc12
  EC50: > 80 µM (inactive)

## COc1ccc(-c2cc(C(F)(F)F)nc(S(C)(=O)=O)n2)cc1OC
  EC50: > 80 µM (inactive)

## CCOC(=O)/C(=C\c1ccccc1)C(=O)c1cc(C(C)=O)c(Nc2ccccc2)s1
  EC50: > 80 µM (inactive)

## O=C(NCCc1ccc(F)cc1)c1coc(=O)c(Br)c1
  EC50: > 80 µM (inactive)

## COc1ccc(/C=C/C(=O)Oc2ccc(C)cc2)cc1
  EC50: > 80 µM (inactive)

## CC1=CC(C)(C)Nc2ccc(OC(=O)CN3C(=O)CCC3=O)cc21
  EC50: > 80 µM (inactive)

## O=C(c1ccc(Cl)cc1)C(CN1CCCC1)c1ccccc1 (configuration not stated)
  EC50: > 80 µM (inactive)

## Oc1[nH]c2ccc(Br)cc2c1N=NC(=S)N1CCOCC1
  EC50: > 80 µM (inactive)

## Cc1ccc(NC(=O)c2nc(S(=O)(=O)Cc3ccccc3C)ncc2Cl)cc1C
  EC50: > 80 µM (inactive)

## CCOC(=O)c1c(CSC(=N)N)n(-c2ccc(C)cc2)c2cc(Br)c(OC(C)=O)cc12
  EC50: > 80 µM (inactive)

## O=C(CCl)Nc1ccc(-c2ccccc2)cc1
  EC50: > 80 µM (inactive)

## COc1cc(/C=C2\C(=O)ON=C2c2ccc(Cl)cc2)ccc1O
  EC50: > 80 µM (inactive)

## Cc1ccc(C(=O)Oc2ccc(Cl)c3cccnc23)cc1[N+](=O)[O-]
  EC50: > 80 µM (inactive)

## COc1ccc(-c2ccc(-c3nc4c(c(=O)[nH]c(=O)n4Cc4ccccc4)n3C)o2)c([N+](=O)[O-])c1
  EC50: > 80 µM (inactive)

## Cc1ccc(C)c(N=Cc2c(O)c3ccccc3oc2=O)c1
  EC50: inactive

## Cc1ccc(C[n+]2c(-c3ccc(C)cc3)cc(-c3ccc(C)cc3)cc2-c2ccc(C)cc2)cc1
  EC50: > 80 µM (inactive)

## CCc1nnc(NC(=O)CSc2nc(-c3ccccc3)cc(-c3ccc(OC)cc3)c2C#N)s1
  EC50: > 80 µM (inactive)

## COC(=O)C1=C(C)N(c2ccc(C)c(C)c2)/C(=C/c2ccco2)C1=O
  EC50: > 80 µM (inactive)

## FC(F)(F)c1nnc2c(Sc3ccc(Cl)cc3)nc3ccccc3n12
  EC50: > 80 µM (inactive)

## Cc1c(C#N)c(NC(=O)CCl)n(Cc2cccs2)c1C
  EC50: > 80 µM (inactive)

## CSc1nnc(NC(=O)c2nc(S(=O)(=O)Cc3ccccc3)ncc2Cl)s1
  EC50: > 80 µM (inactive)

## Cc1ccc(C)c2sc(N3CCN(C(=O)c4ccc([N+](=O)[O-])o4)CC3)nc12
  EC50: > 80 µM (inactive)

## O=C(Nc1ccc2oc(-c3ccncc3)nc2c1)c1ccc([N+](=O)[O-])o1
  EC50: > 80 µM (inactive)

## O=C(Oc1c(CN2CCOCC2)cc(Cl)c2cccnc12)c1ccc(F)cc1
  EC50: > 80 µM (inactive)

## COc1cc([C@H]2c3[nH]c4ccccc4c3C[C@H]3C(=O)N4[C@@H](c5cc(OC)c(OC)c(OC)c5)c5[nH]c6ccccc6c5C[C@H]4C(=O)N23)cc(OC)c1OC
  EC50: 14.1 µM

## COc1ccc(NC(=O)c2sc3nc(N4CCOCC4)c4c(c3c2N)CC(C)(C)OC4)c(OC)c1
  EC50: > 80 µM (inactive)

## O=C(Nc1nc2c(F)cc(F)cc2s1)c1ccccn1
  EC50: > 80 µM (inactive)

## COc1cc(/C=C(/C(=O)c2cccs2)c2nc3ccccc3[nH]2)cc(OC)c1O
  EC50: > 80 µM (inactive)

## c1ccc(CSC2=NNC(c3ccccn3)S2)cc1 (configuration not stated)
  EC50: > 80 µM (inactive)

## CC(C)c1ccc(/C=C(\c2nc3ccccc3[nH]2)S(=O)(=O)c2ccccc2)cc1
  EC50: > 80 µM (inactive)

## Cn1c(=O)c2c(SCC(=O)Nc3ccccc3F)nc(-c3ccccc3F)nc2n(C)c1=O
  EC50: 10.9 µM
